Tests used:
[1] = Stability of compound in blood (mouse serum, half life); conditions: female, Balb/c
Protocol: Blood was drawn from Balb/c mice (female) of 8 weeks old, settled at 37° C. for 30 minutes and centrifuged at 13000 rpm for 10 minutes to give the serum as the supernatant. The serum thus obtained was frozen-stored at −80° C.
The stability test was performed by addition of 5 nmol of Compound (5 μL of aqueous solution) to 45 μL of serum and then settlement of the mixture at 37° C. The settlement was made at 3 points of time, including 2, 10 and 30 minutes. The sample after the settlement was boiled for 3 minutes and cooled on an ice bath. After 200 μL of acetonitrile/water (3/1) was added to the sample, the mixture was ultrasonicated for 5 minutes and then centrifuged at 5000 rpm for 1 minute. After 150 μL of the supernatant was diluted with 250 μL of distilled water, insoluble matters were removed by filtration through a filter having a pore size of 0.45 μm and 200 μL of the filtrate was applied on HPLC (220 nm) to determine the peak area of Compound. A ratio of the peak area to the area when Compound was treated for 0 minute under the same conditions was calculated as a mean value in 4 respective runs to determine the residual ratio. Next, by taking the calculated residual ratio on the ordinate and the time on the abscissa, a graph was prepared and approximated by an exponential function.
The preparative HPLC used was the LC-VP series manufactured by Shimadzu Corporation and Wakosil-II 5C18 HG (4.6 mm×100 mm) manufactured by Wako Pure Chemical Industries, Ltd. was used as the column. Eluant A (0.1% TFA-containing water) and eluant B (0.1% TFA-containing acetonitrile) were used as eluants. Analysis was performed by linear density gradient elution (25 minutes) at a flow rate of 1.0 ml/min. using eluants A/B: 100/0-0/50.

hOT7T175 = hOT7T175 (Homo sapiens, UniProt Q969F8, L364H); experiment: Intracellular Ca ion level-increasing activity using FLIPR in hOT7T175/CHO; format: cell-based; parameters: expressed in transfected cells; host or cells: CHO/dhfr- cells, obtained from ATCC; conditions: relative, Metastin (1-54) = 1
hOT7T175, sequence (Q969F8 whole entry L364H): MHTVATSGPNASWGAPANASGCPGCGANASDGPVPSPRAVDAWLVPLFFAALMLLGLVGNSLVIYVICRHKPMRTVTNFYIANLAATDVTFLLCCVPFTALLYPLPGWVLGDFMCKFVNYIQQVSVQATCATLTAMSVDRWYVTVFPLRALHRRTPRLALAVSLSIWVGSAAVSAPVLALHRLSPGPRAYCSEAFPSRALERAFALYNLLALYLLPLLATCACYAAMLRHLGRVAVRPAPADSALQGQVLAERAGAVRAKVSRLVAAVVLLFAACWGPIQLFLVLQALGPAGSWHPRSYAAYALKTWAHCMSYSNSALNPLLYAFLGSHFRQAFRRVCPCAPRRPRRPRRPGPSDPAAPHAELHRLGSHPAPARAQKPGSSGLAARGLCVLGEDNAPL

SMILES: CC(C)C[C@H](NC(=O)CNC(=O)[C@H](Cc1ccccc1)NC(=O)[C@H](CO)NC(=O)[C@H](CC(N)=O)NC(=O)[C@H](Cc1c[nH]c2ccccc12)NC(=O)[C@H](CC(N)=O)NC(=O)[C@H](N)Cc1ccc(O)cc1)C(=O)N[C@@H](CCCNC(=N)N)C(=O)N[C@@H](Cc1ccccc1)C(N)=O [Compound No. 42]
- half-life at 100 µM [1]: 0.7 min
- Specific Activity (intracellular Ca ion level-increasing activity) (hOT7T175): 30

Source: patent US8361968B2 (Takeda Pharmaceutical Company Limited, priority 2002, dated 2013)
